Values after ≈ are worked out from the molar mass of the structure shown. Where a SMILES comes first, the peptide text is derived from it. Bridges are numbered along the chain shown (N, C = ends).
Columns and labels:
[1] = system: human SK3 channel; experiment: Whole-cell patch clamp, human SK3 in HEK293T cells; type: cell-based; details: human SK3 in HEK cells, currents recorded at 0 mV, pCa 6
Description: (§1) The ATCC (American Type Culture Collection, Rockville, MD, United States) cancer cell lines U87 (glioblastoma), MDA-MB231 (breast cancer) and LS174 (colon adenocarcinoma) were routinely cultured in DMEM supplemented with 10% fœtal bovine serum (FBS), 1% l-glutamine and 100 IU/mL penicillin/streptomycin. […] Rat SK2 cDNA cloned into pJA5 plasmid was a gift from Dr. Skolnik (university Langone Medical center, New York). Human SK3 cDNA cloned into Pipru vector was a king gift from Pr. Soriani (Université Côte d’Azur, CNRS, Inserm, Nice, France).
HEK293T-hSK3 and HEK293-rSK2 cells were selected using the puromycin and neomycin resistance gene respectively. HEK cells were routinely cultured in DMEM supplemented with 5% FBS and 1% l-glutamine. All cell lines were maintained at 37°C in a humid atmosphere of 5% CO2 in air.
Experiments were performed with cells seeded into 35-mm Petri dishes at 3,000 to 6,000 cells per cm^2. All experiments were performed using the conventional whole-cell recording configuration of the patch-clamp technique ([Girault et al., 2011]). For HEK cells expressing SK2 or SK3 channels, voltages clamp ramp protocols were used with a duration of 2 s, with varying voltages - 100 to +100 mV, with a holding potential of 0 mV. […] Also, at 0 mV, the membrane potential currents will be recorded mainly K^+ currents and not Cl^− currents.

[2] = system: MDA-MB231 breast cancer cells; experiment: Cell viability (MTT), MDA-MB231; type: cell-based, human; details: 25–200 μg/mL, 24 h, 10,000 cells per well, n = 3
Description: as §1
(§2) The human cell lines U87, MDA-MB231, or LS174 (10,000 cells per well) were treated with P01 peptide at different concentrations (25; 50; 100 and 200 μg/mL). After 24 h, the wells were washed with phosphate-buffered saline (PBS) and then the 3-(4,5-dimethylthiazol-2-yl)-2,5-diphenyltetrazolium bromide (MTT) (0.5 mg/mL) was added to the cells as previously described ([Kouba et al., 2020]). The crystals formed after the reduction of MTT by mitochondrial dehydrogenases were dissolved with dimethylsulfoxyde (DMSO). The quantification of live cells was achieved by measuring absorbance at 560 nm using a spectrophotometer (Thermo-Multiskan EX, Shanghai, China).

[3] = system: LS174 colon adenocarcinoma cells; experiment: Cell adhesion assay, LS174; type: cell-based, human; details: data not shown
Description: as §1
Adhesion assays were performed as previously described by ([Sarray et al., 2007]). Glioblastoma U87 cells in suspension (10^6 cells/mL) were treated with 50 μg/mL of P01 and deposited on wells coated with purified extracellular matrix (ECM): Fg at 50 μg/mL; Fn at 10 μg/mL; Coll-I at 50 μg/mL; laminin (Lam) at 15 μg/mL or poly-L-lysine (PL) at 20 μg/mL for U87. MDA-MB231 and LS174 cells were also used in their adequate ECM: Fg and Coll-I respectively. They were incubated to adhere to the substrate for 2 h or 24 h at 37°C. After washing, attached cells were fixed, stained by 0.1% crystal violet, lysed with 1% SDS and quantified by measuring absorbance at 560 nm. The specific adhesion is obtained by subtracting the absorbance obtained in the absence of adhesion substrate (no specific control). […]

[4] = system: β3 integrin; experiment: U87 cell adhesion in presence of anti-integrin antibodies, β3; type: cell-based, human; details: 50 μg/mL P01, 30 min pre-incubation, 2 h at 37°C, anti-β3 (1/200), n = 3
Procedure: (§3) To study the implication of integrins in the P01 peptide activity, adhesion assays using anti-integrin blocking antibodies: anti- α1β1 (1/200), anti- αvβ3 (1/200), anti- α5 (1/200) and anti- β3 (1/200) were performed as described above, except that cells were pretreated with the active peptide P01 at 50 μg/mL.

[5] = system: U87 glioblastoma cells; experiment: Cell proliferation test (crystal violet), U87; type: cell-based, human
Description: as §1
(§4) The effect of the P01 peptide on cell proliferation was studied. The human cell lines U87, MDA-MB231 or LS174 (5,000 cells per well) were treated with 2; 5 and 10 μg/mL of P01 peptide. The plates were placed at 37°C for 72 h. Cellular proliferation was quantified at 560 nm by a spectrophotometer (Thermo-Multiskan EX, Shanghai, China) after treatment with 1% glutaraldehyde and staining with 0.1% crystal violet.
(§5) Every 24 h, a series of wells was washed with PBS, the cells were fixed with 1% glutaraldehyde, and preserved in PBS to follow the kinetics of proliferation. After 72 h, the cells were stained with crystal violet 0.1% and quantified by measuring the absorbance at 560 nm using a spectrophotometer (Thermo-Multiskan EX, Shanghai, China).

[6] = system: U87 glioblastoma cells; experiment: Cell adhesion assay, U87; type: cell-based, human; details: n = 3; for inhibition of adhesion: 50 μg/mL P01, 2 h
Description: as §1
Adhesion assays were performed as previously described by ([Sarray et al., 2007]). Glioblastoma U87 cells in suspension (10^6 cells/mL) were treated with 50 μg/mL of P01 and deposited on wells coated with purified extracellular matrix (ECM): Fg at 50 μg/mL; Fn at 10 μg/mL; Coll-I at 50 μg/mL; laminin (Lam) at 15 μg/mL or poly-L-lysine (PL) at 20 μg/mL for U87. MDA-MB231 and LS174 cells were also used in their adequate ECM: Fg and Coll-I respectively. They were incubated to adhere to the substrate for 2 h or 24 h at 37°C. After washing, attached cells were fixed, stained by 0.1% crystal violet, lysed with 1% SDS and quantified by measuring absorbance at 560 nm. The specific adhesion is obtained by subtracting the absorbance obtained in the absence of adhesion substrate (no specific control). To study the dose-response effect, different concentrations of P01 were used (25–100 μg/mL) and the IC50 value was determined.

[7] = system: LS174 colon adenocarcinoma cells; experiment: Cell viability (MTT), LS174; type: cell-based, human; details: 25–200 μg/mL, 24 h, 10,000 cells per well, n = 3
Description: as §1, §2

[8] = system: LS174 colon adenocarcinoma cells; experiment: Cell proliferation test (crystal violet), LS174; type: cell-based, human; details: 2–10 μg/mL, 72 h, n = 3
Description: as §1, §4, §5

[9] = system: α1β1 integrin; experiment: U87 cell adhesion in presence of anti-integrin antibodies, α1β1; type: cell-based, human; details: 50 μg/mL P01, 30 min pre-incubation, 2 h at 37°C, anti-α1β1 (1/200), n = 3
Procedure: as §3

In the case of `CC[C@H](C)[C@H](NC(=O)[C@@H]1CCCN1C(=O)[C@H](CCC(=O)O)NC(=O)[C@@H]1CSSC[C@@H]2NC(=O)[C@H](Cc3c[nH]cn3)NC(=O)[C@H](CCC(=O)O)NC(=O)[C@@H]3CCCN3C(=O)[C@@H]3CSSC[C@H](NC(=O)[C@H](CCCCN)NC(=O)[C@H](CC(=O)O)NC(=O)[C@H](CC(N)=O)NC(=O)[C@H](CC(=O)O)NC(=O)[C@H](CSSC[C@H](NC(=O)[C@H](CO)NC(=O)[C@@H](N)C(C)C)C(=O)N[C@@H](CCC(=O)O)C(=O)N[C@@H](CC(=O)O)C(=O)N3)NC(=O)[C@H](CCCCN)NC(=O)[C@H](C)NC(=O)[C@H](CCC(N)=O)NC(=O)[C@H](C)NC(=O)[C@H](CCCCN)NC(=O)[C@H](CCC(N)=O)NC(=O)[C@H]([C@@H](C)O)NC(=O)[C@H](CO)NC2=O)C(=O)N[C@@H](C(C)C)C(=O)N1)C(=O)O` [P01] (H-VSCEDCPEHCSTQKAQAKCDNDKCVCEPI-OH; disulfide 3-19, 6-24, 10-26 (inferred); N-terminus and C-terminus assumed), the “effect on SK3 current” value [1] was “no effect”, the “cytotoxic effect (cell viability)” value [2] was “did not have a cytotoxic effect” and the effect on adhesion [3] was “not affected”. For the same molecule, the “effect on cell adhesion through β3” value [4] was “not able to alter cell adhesion”, the “IC50 (viability/proliferation)” value ([5]; 72 h of incubation) was 10 µg/mL (≈ 3.15 µM) and the “kinetic effect on proliferation” value ([5]; P01 at 10 μg/mL, time course to 72 h, n = 3) was “inhibition appeared after 48 h of treatment”. For the same molecule, the “effect on adhesion after 24 h, Fg and Fn” value ([6]; Fg and Fn, 50 μg/mL P01, 24 h) was “stayed active on Fg and Fn”, the inhibition of adhesion ([6]; fibrinogen (Fg), 37°C) was 41% and the “IC50 (adhesion to Fg)” value ([6]; fibrinogen, 25–100 μg/mL, 2 h) was 48.86 µg/mL (≈ 15.4 µM). For the same molecule, the inhibition of adhesion ([6]; fibronectin (Fn), 37°C) was 38%, the “IC50 (adhesion to Fn)” value ([6]; fibronectin, 25–100 μg/mL, 2 h) was 62.04 µg/mL (≈ 19.5 µM) and the inhibition of adhesion ([6]; poly-L-lysine (Pl)) was “no inhibition could be observed”. For the same molecule, the “effect on adhesion after 24 h, Pl” value ([6]; poly-L-lysine (Pl), 50 μg/mL P01, 24 h) was “an inhibition effect on Pl appeared”, the “cytotoxic effect (cell viability)” value [7] was “did not have a cytotoxic effect” and the “effect on cell proliferation” value [8] was “no effect”. For the same molecule, the “effect on adhesive function of α1β1” value [9] was “reduced the adhesive function”.

Reference: paper PMC10326281, “Insights into the mechanisms governing P01 scorpion toxin effect against U87 glioblastoma cells oncogenesis” (Frontiers in Pharmacology, 2023)
